Values quoted from earlier work as cited in patent publication EP2527351B1, “Lipophosphonoxins, method of their preparation and use” (priority 2011, dated 2012).

Test system: Mycobacterium tuberculosis strains
Conditions: multidrug-resistant strains, in vitro; cited from earlier work

caprazamycins [CPZs]
MIC: 3.13 µg/mL
